Test [1] addresses T1, ADRB3 (Homo sapiens, UniProt P13945).
T1 construct: purchased Promega (in-house HiBiT-GPCR construct library, NanoBRET)
As to the kind of experiment: NanoBRET screen HiBiT-ADRB3 in HEK293. The format is binding. As for the experimental part: (§1) Each tracer candidate was screened across the entire library of HiBiT-GPCR constructs using NanoBRET as the detection modality. As depicted in Figure 4A, the specificity of interactions was evaluated through decrease in BRET due to competitive displacement of a bound tracer by excess parental compound. Each tracer was analyzed for binding to each HiBiT-GPCR fusion in the absence and in the presence of competing parental compound. Briefly, HEK293 cells were transfected with HiBiT-GPCR constructs diluted into promoterless DNA to reduce expression and maximize translocation to the cell surface. Each tracer candidate was then screened at concentrations of 1 μM and 0.1 μM across cells expressing these fusions. Cells were treated for 1.5 h with tracer either alone or in the presence of 20 μM competing parental compound (i.e., control). BRET was measured upon addition of purified LgBiT and subsequent complementation with HiBiT genetically fused to a GPCR. The specificity of interactions was assessed through a decrease in BRET signal due to competitive displacement of the bound tracer. To further gauge the robustness of these interactions, the fold response over the control (i.e., BRETtracer/BRETcontrol) was calculated. We chose a 1.5-fold response, which translates to ≥7-fold signal over noise as the minimal threshold required to score an interaction as positive.
(§2) HiBiT-GPCR DNA constructs were diluted in 10 mM Tris pH 8 to a final concentration of 0.01 μg/μL, arrayed in 96-well plates and stored at −20 °C. For transfection, HEK293 cells were suspended in Opti-MEM (without phenol red) supplemented with 2% fetal bovine serum (Seradigm) and 100 units/mL penicillin–streptomycin (Gibco) at a final concentration of 220,000 cells/mL and dispensed into white 96-well plates at 90 μL/well. Subsequent transfections and screens were carried using an Agilent Bravo Automated Liquid Handling Platform. First, the 96-well HiBiT DNA arrays were diluted 25-fold in Opti-MEM (without serum or phenol red) to a final concentration of 0.0004 μg/μL and 20 μL of the diluted DNAs were transferred into new 96-well plates. Next, promoterless carrier DNA (1 μg/μL) was diluted 25-fold (0.04 μg/μL) and then dispensed into the diluted arrays at 20 μL/well. Following brief mixing, Viafect transfection reagent (Promega) diluted 16-fold into Opti-MEM was dispensed into the plates at 40 μL/well. After mixing by pipetting, plates were incubated for 10 min on the pipetting station deck. The DNA-transfection reagent complexes were then added to plates containing cells. To facilitate the screen, 10 μL of DNA-transfection reagent complexes were added in duplicates to the top 4 and bottom 4 rows, resulting in two identical 48-well arrays per plate. Plates with transfected cells were incubated for 18–20 h at 37 °C/5% CO2. A screen of each tracer across the entire library using two different concentrations requires duplicate plates of transfected cells. Depending on the number of tracers being screened, transfections can be scaled up using the same ratios. The next day, for each tracer, four 20× screening solutions in tracer dilution buffer (Promega) were prepared: two duplicates at final concentration of 20 μM and two duplicates at a final concentration of 2 μM. […] The four resulting solutions were diluted 4-fold in Opti-MEM without serum or phenol red to generate 5× solutions (5 µM and 0.5 µM tracer +/− 100 μM competing compound). To screen the library, a BioTek MultiFlo FX liquid dispenser was used to dispense 22.5 µL of tracer solution to the top 4 rows and 22.5 µL tracer + competing compound solution to the 4 bottom rows. Plates were briefly mixed on an orbital shaker and incubated for 1.5 h at room temperature. […] Plates were briefly mixed on an orbital shaker and incubated for 15 min to allow complementation.

The target in test [2] is T2, OPRD1 (Homo sapiens, UniProt P41143).
T2 construct: purchased Promega (in-house HiBiT-GPCR construct library, NanoBRET)
T2 sequence (P41143 whole entry): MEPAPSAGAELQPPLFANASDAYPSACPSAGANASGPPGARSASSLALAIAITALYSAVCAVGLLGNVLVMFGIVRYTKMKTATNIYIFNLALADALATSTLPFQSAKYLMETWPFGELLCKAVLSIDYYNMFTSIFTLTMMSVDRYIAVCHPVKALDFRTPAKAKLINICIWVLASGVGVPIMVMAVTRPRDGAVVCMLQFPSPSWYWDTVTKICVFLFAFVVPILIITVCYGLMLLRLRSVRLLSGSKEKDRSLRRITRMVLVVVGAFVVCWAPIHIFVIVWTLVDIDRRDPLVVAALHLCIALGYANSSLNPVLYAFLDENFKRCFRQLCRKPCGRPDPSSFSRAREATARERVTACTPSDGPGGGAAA
The test can be described thus: NanoBRET screen HiBiT-OPRD1 in HEK293. The format is binding. The procedure: as §1, §2

The mark [3] stands for this setting: tracer at 0.1μM, listed as amitriptyline-b-2-NB590.
The mark [4] stands for this setting: tracer at 1μM, listed as amitriptyline-b-2-NB590.

T1 sequence (P13945 whole entry): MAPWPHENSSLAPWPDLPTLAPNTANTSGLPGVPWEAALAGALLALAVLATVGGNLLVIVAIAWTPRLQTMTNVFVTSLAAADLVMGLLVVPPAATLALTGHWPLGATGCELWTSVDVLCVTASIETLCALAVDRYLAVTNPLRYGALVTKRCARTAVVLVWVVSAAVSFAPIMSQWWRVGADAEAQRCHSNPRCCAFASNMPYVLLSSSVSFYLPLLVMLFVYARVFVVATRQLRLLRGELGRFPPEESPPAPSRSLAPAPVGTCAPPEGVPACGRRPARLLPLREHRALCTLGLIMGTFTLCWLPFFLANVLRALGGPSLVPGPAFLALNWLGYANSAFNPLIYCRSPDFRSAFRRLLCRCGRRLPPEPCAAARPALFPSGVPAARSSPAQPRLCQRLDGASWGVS

For the compound `CN(C)CCC=C1c2ccccc2CCc2ccc(C(=O)NCCNC(=O)CCOCCOCCOCCOCCNC(=O)CCc3ccc4n3[B-](F)(F)[N+]3=C(c5ccc[nH]5)C=CC3=C4)cc21` [Amitriptyline-b-2-NB590], the “NanoBRET Fold Response” value in test [1] (setting [3]) came out at 1.15; in test [1] (setting [4]), 1.02; in test [2] (setting [3]), 1.01; in test [2] (setting [4]) it was 1.01.
For the compound `O=C(CCOCCOCCOCCOCCNC(=O)CCc1ccc2n1[B-](F)(F)[N+]1=C(c3ccc[nH]3)C=CC1=C2)NCCCN1CCN(C2=Nc3cc(Cl)ccc3Nc3ccccc32)CC1` [Clozapine-a-2-NB590], the “NanoBRET Fold Response” value in test [1] (ADRB3, 0.1μM tracer) stood at 0.97; in test [1] (ADRB3, 1μM tracer), 0.99; in test [2] (OPRD1, 0.1μM tracer) it was 1.04; in test [2] (OPRD1, 1μM tracer), 0.95.
Taken in the same sequence, the figures for `CN1CCN(C2=Nc3cc(Cl)ccc3Nc3ccc(CNC(=O)CCOCCOCCOCCOCCNC(=O)CCc4ccc5n4[B-](F)(F)[N+]4=C(c6ccc[nH]6)C=CC4=C5)cc32)CC1` [Clozapine-b-2-NB590] were 1.01, 0.98, 1.02 and 0.99.
In the case of `Cc1nc2n(c(=O)c1CCN1CCC(c3noc4cc(F)ccc34)CC1)CCCC2OC(=O)NCCOCCOCCOCCOCCNC(=O)CCc1ccc2n1[B-](F)(F)[N+]1=C(c3ccc[nH]3)C=CC1=C2` (stereo not shown) [Risperidone-2-NB590], the “NanoBRET Fold Response” value in test [1] (ADRB3, tracer 0.1μM) is 0.98; in test [1] (ADRB3, tracer 1μM) it was 1.01; in test [2] (OPRD1, tracer 0.1μM), 0.99; in test [2] (OPRD1, tracer 1μM), 0.99.

Source of the values: article PMC8151276, “An Integrated Approach toward NanoBRET Tracers for Analysis of GPCR Ligand Engagement” (Molecules, 2021).
